Experimental data from patent USRE29828E, “1-Substituted-3-amidopyrrolidines” (A. H. Robins Company, Inc., priority 1976, dated 1978).
Where a name gives a salt, the structure may show the parent alone.

system: mice; test: animal or person; format: in vivo; details: Mus musculus, read-out: ED50 (dose effective in 50 percent of the treated mice), analgetic effect

Structure (SMILES) | ED50 [mg/kg]
CCC(=O)O[C@](Cc1ccccc1)(c1ccccc1)[C@H](C)CN(C)C [Darvon®, reference compound] | 11.2
CN1CCC(N(C(=O)COc2ccc(Cl)cc2)c2ccccc2)C1 (stereo not drawn) [Example 31] | 16.5
CN1CCC(N(C(=O)c2ccc(Cl)cc2)c2ccccc2)C1 (stereo not drawn) [Example 15, 1-methyl-3-[N-phenyl-(4-chlorobenzamido)]pyrrolidine fumarate] | 5.2
C=CCN1CCC(N(C(=O)CC)c2ccccc2)C1 (stereo not drawn) [Example 5] | 8
CCOC(=O)C1(c2ccccc2)CCN(C)CC1 [Demerol®, reference compound] | 6.4
CCC(=O)N(c1ccccc1)C1CCN(CCOc2ccccc2)C1 (stereo not drawn) [Example 17, 1-(2-phenoxyethyl)-3-(N-phenylpropionamido)pyrrolidine hydrochloride] | 14.2
CCC(=O)N(c1ccccc1)C1CCN(CCOc2ccccc2OC)C1 (stereo not drawn) [Example 18, 1-[2-(2-methoxyphenoxy)ethyl]-3-(N-phenylpropionamido)-pyrrolidine] | 3.4
CCC(=O)N(c1ccccc1OC)C1CCN(CCOc2ccccc2)C1 (stereo not drawn) [Example 4, 1-(2-phenoxethyl)-3-[N-(2-methoxyphenyl)propionamido]pyrrolidine] | 6.8

system: depressant action of tetrabenazine in mice; test: anti-depressant effect: antagonism of the depressant action of tetrabenazine in mice; format: in vivo; details: Mus musculus, read-out: ED50 (dose effective in 50 percent of the treated mice), anti-depressant effect
Procedure: The anti-depressant effect of some compounds of this invention was assessed by their ability to antagonize the depressant action of tetrabenazine (2-oxo-3-isobutyl-9,10-dimethoxy- 1,2,3,4,6,7 -hexahydro-11bH-benzo[a]quinolizine) in mice [Englehardt et al. J. Med. Chem. 11 (2), 325 (1968)].

Structure (SMILES) | ED50 [mg/kg]
CN1CCC(N(C(=O)c2cccc(Cl)c2)c2ccccc2)C1 (stereo not drawn) [Example 37] | 2.8
CN1CCC(N(C(=O)c2ccc(F)cc2)c2ccccc2)C1 (stereo not drawn) [Example 38] | 4.8
O=C(c1ccccc1)N(c1ccccc1)C1CCNC1 (stereo not drawn) [Example 42] | 2.4
CN(C)CCCN1c2ccccc2CCc2ccccc21 [Tofranil®, reference compound] | 1.3
CN1CCC(N(C(=O)c2ccc(Cl)cc2)c2ccccc2)C1 (stereo not drawn) [Example 15, 1-methyl-3-[N-phenyl-(4-chlorobenzamido)]pyrrolidine fumarate] | 0.6
CCN1CCC(N(C(=O)c2ccc(Cl)cc2)c2ccc(Cl)cc2)C1 (stereo not drawn) [Example 47] | 4.9
CN1CCC(N(C(=O)c2ccccc2)c2ccccc2)C1 (stereo not drawn) [Example 29] | 1.7
CN1CCC(N(C(=O)c2cccc(C(F)(F)F)c2)c2ccccc2)C1 (stereo not drawn) [Example 36] | 2.8
CCN1CCC(N(C(=O)c2ccccc2)c2cccc(C(F)(F)F)c2)C1 (stereo not drawn) [Example 44] | 2
O=C(c1ccccc1)N(c1ccccc1)C1CCN(Cc2ccccc2)C1 (stereo not drawn) [Example 41] | 4.9
CN1CCC(N(C(=O)c2ccc(Br)cc2)c2ccccc2)C1 (stereo not drawn) [Example 40] | 15.5
CCN1CCC(N(C(=O)c2ccc(Cl)cc2)c2ccccc2)C1 (stereo not drawn) [Example 48] | 0.6

same assay, conditions: Mus musculus; mice; antagonism of depressant action of tetrabenazine; read-out: ED50 (dose effective in 50 percent of the treated mice), anti-depressant effect

Structure (SMILES) | ED50 [mg/kg]
CN(C)CCC=C1c2ccccc2CCc2ccccc21 [Elavil®, reference compound] | 1.1
